Test results published in US20210070748A1, “INHIBITORS OF BRUTONS TYROSINE KINASE” (Pharmacyclics LLC, priority 2015, published 2021).

Tests used:
Format in all cases: biochemical
BTK-WT = target: T1, BTK-WT (Homo sapiens, UniProt Q06187); experiment: Btk in vitro inhibitory activity (one of Method A TR-FRET, Method B electrophoretic mobility shift, Method C radiometric filter binding); conditions: D-compounds panel data; read-out: IC50 BTK-WT
T1 construct: purified from insect cells as a full-length construct containing an N-terminal 6X-His tag; His6 (N); made in house; host or cells: insect cells (baculovirus Sf21 in Method B)
T1 sequence (Q06187 whole entry): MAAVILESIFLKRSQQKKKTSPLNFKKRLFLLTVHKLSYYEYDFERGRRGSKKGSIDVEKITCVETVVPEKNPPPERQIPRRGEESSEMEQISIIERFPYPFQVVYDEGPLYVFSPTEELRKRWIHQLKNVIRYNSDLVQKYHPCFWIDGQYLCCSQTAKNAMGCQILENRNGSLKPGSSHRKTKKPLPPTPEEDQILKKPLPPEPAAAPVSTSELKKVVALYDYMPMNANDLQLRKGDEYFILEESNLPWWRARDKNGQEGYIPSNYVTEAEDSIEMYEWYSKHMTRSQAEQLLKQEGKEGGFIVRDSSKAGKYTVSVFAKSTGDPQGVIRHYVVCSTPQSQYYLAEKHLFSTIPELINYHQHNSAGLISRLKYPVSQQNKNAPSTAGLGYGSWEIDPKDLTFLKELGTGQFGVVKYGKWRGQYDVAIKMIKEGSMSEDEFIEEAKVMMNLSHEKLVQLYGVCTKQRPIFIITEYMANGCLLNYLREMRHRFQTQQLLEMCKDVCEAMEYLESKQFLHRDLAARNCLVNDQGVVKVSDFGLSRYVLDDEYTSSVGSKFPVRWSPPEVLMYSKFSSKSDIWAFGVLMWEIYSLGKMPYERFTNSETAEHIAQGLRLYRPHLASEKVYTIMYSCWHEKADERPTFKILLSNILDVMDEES

TEC = target: T2, TEC (Homo sapiens, UniProt P42680); experiment: Inhibition of a panel of kinases, in vitro HotSpot kinase assay: TEC; conditions: D-compounds panel data; 1 μM ATP
T2 sequence (P42680 1-631): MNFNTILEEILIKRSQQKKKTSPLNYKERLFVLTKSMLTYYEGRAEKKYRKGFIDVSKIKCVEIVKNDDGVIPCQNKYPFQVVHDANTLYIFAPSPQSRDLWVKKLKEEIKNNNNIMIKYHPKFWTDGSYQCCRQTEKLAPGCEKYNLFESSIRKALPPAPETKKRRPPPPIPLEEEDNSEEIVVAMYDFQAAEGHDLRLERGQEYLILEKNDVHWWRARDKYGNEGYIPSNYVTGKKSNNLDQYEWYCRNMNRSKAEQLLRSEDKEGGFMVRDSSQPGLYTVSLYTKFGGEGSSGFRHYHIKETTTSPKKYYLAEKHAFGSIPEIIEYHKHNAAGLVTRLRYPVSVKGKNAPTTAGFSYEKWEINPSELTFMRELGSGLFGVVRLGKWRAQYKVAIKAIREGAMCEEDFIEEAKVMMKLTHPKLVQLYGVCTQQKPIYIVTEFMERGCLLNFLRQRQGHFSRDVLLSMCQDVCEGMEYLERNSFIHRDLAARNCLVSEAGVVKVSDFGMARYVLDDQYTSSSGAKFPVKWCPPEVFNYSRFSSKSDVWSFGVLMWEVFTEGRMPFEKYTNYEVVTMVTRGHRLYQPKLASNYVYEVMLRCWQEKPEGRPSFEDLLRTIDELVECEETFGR
Protocol: (§1) The degree of inhibition of a panel of kinases is determined using the in vitro HotSpot kinase assay (purified enzymes, ^33P-ATP, an appropriate substrate and 1 μM ATP).

ITK = target: T3, ITK (Homo sapiens, UniProt Q08881); experiment: Inhibition of a panel of kinases, in vitro HotSpot kinase assay: ITK; conditions: D-compounds panel data; 1 μM ATP
T3 sequence (Q08881 1-620): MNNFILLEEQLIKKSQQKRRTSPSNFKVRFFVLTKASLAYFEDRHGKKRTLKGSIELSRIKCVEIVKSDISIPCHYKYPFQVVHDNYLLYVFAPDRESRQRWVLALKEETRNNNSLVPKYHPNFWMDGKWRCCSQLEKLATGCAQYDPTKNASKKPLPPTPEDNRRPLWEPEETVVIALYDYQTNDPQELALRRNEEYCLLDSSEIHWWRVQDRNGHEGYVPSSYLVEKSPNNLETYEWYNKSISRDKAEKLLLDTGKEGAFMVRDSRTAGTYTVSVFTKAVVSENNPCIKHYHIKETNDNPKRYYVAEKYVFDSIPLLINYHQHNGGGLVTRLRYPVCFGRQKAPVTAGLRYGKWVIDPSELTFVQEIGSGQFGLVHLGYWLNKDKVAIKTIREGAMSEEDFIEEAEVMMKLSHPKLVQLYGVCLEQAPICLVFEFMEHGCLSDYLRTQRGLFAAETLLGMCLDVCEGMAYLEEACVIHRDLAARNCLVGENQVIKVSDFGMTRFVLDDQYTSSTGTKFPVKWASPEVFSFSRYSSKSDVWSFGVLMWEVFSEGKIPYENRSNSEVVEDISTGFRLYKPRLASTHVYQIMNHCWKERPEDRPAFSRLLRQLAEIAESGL
Protocol: as §1

EGFR = EGFR (Homo sapiens, UniProt P00533); experiment: Inhibition of a panel of kinases, in vitro HotSpot kinase assay: EGFR; conditions: D-compounds panel data; 1 μM ATP
EGFR, sequence (P00533 25-1210): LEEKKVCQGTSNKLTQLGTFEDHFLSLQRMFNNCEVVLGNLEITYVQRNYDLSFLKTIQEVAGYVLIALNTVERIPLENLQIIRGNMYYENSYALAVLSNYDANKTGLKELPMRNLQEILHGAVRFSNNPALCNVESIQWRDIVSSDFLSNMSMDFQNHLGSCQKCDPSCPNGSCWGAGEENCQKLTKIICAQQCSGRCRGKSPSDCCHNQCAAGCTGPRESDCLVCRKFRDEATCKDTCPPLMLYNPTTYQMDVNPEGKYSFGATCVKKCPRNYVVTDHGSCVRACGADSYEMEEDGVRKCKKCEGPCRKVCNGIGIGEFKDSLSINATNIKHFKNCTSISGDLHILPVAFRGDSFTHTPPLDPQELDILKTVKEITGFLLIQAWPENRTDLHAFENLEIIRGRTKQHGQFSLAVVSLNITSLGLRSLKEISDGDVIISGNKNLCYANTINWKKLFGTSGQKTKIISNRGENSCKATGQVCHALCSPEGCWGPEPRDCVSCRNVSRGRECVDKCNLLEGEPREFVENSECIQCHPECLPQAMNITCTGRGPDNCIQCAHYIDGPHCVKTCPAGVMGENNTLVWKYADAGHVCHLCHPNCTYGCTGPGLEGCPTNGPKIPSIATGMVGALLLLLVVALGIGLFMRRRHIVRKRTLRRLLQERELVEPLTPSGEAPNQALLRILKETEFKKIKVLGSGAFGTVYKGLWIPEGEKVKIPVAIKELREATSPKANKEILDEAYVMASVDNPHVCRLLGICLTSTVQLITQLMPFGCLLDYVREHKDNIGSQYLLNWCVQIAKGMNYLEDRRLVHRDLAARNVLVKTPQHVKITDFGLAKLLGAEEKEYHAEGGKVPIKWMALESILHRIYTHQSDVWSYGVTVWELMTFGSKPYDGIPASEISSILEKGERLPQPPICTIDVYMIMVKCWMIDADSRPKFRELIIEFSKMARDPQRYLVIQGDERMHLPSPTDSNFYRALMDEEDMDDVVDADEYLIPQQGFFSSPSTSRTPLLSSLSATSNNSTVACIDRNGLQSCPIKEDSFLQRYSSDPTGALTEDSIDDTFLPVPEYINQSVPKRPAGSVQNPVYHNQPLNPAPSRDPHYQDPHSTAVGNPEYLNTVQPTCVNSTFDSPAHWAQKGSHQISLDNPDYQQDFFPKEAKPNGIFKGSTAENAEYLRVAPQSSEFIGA
Protocol: as §1

SRC = SRC (Homo sapiens, UniProt P12931); experiment: Inhibition of a panel of kinases, in vitro HotSpot kinase assay: SRC; conditions: D-compounds panel data; 1 μM ATP
SRC, sequence (P12931 whole entry): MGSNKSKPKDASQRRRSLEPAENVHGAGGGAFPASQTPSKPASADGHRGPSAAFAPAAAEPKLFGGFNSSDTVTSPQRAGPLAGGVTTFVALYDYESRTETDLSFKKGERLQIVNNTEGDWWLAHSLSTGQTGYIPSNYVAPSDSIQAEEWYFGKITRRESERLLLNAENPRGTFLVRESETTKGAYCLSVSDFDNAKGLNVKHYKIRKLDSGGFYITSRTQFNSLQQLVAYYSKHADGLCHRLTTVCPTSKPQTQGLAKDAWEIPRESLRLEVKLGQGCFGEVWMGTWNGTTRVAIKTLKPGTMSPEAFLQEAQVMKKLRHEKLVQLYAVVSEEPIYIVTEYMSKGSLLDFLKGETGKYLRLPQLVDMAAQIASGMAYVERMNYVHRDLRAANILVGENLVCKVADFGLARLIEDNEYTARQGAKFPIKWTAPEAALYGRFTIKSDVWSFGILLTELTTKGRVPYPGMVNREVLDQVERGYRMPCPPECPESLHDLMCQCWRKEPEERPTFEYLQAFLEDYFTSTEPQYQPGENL
Protocol: as §1

IC50 (BTK-WT) | IC50 (TEC) | IC50 (ITK) | IC50 (EGFR) | IC50 (SRC) | SMILES
≤ 10 nM | 100 to 1000 nM | 100 to 1000 nM | 100 to 1000 nM | 1000 to 10000 nM | C[C@@H]1[C@H](NC(=O)c2ccc(C3CC3)cc2)CCCN1c1cnc(C(N)=O)c(Nc2ccc(N3CCN(C)CC3)cc2F)n1 [Example D-103, 5-[(2R,3R)-3-(4-cyclopropylbenzamido)-2-methylpiperidin-1-yl]-3-{[2-fluoro-4-(4-methylpiperazin-1-yl)phenyl]amino}pyrazine-2-carboxamide]
≤ 10 nM | ≤ 10 nM | 10 to 100 nM | 100 to 1000 nM | 10 to 100 nM | C[C@@H]1[C@H](NC(=O)c2ccc(C3CC3)cc2)CCCN1c1cnc(C(N)=O)c(Nc2ccc(OC3CCCN(C)C3)cc2)n1 (stereo partly drawn) [Example D-105, 5-[(2R,3R)-3-(4-cyclopropylbenzamido)-2-methylpiperidin-1-yl]-3-({4-[(1-methylpiperidin-3-yl)oxy]phenyl}amino)pyrazine-2-carboxamide]
≤ 10 nM | ≤ 10 nM | 100 to 1000 nM | 1000 to 10000 nM | 10 to 100 nM | CC(=O)NC(C)(C)c1ccc(C(=O)N[C@@H]2CCCN(c3cnc(C(N)=O)c(Nc4cnn(C)c4)n3)[C@@H]2C)cc1 [Example D-107, 5-[(2R,3R)-3-[4-(2-acetamidopropan-2-yl)benzamido]-2-methylpiperidin-1-yl]-3-[(1-methyl-1H-pyrazol-4-yl)amino]pyrazine-2-carboxamide]
≤ 10 nM | 10 to 100 nM | 100 to 1000 nM | 1000 to 10000 nM | 10 to 100 nM | C[C@@H]1[C@H](NC(=O)c2ccc(C(C)(C)N(C)C)cc2)CCCN1c1cnc(C(N)=O)c(Nc2cnn(C)c2)n1 [Example D-108, 5-[(2R,3R)-3-{4-[2-(dimethylamino)propan-2-yl]benzamido}-2-methylpiperidin-1-yl]-3-[(1-methyl-1H-pyrazol-4-yl)amino]pyrazine-2-carboxamide]
≤ 10 nM | 10 to 100 nM | 100 to 1000 nM | 1000 to 10000 nM | 100 to 1000 nM | CNC(=O)N[C@@H]1CCCN(c2cnc(C(N)=O)c(Nc3cnn(C)c3)n2)[C@@H]1C [Example D-109, 3-[(1-methyl-1H-pyrazol-4-yl)amino]-5-[(2R,3R)-2-methyl-3-[(methylcarbamoyl)amino]piperidin-1-yl]pyrazine-2-carboxamide]
≤ 10 nM | 100 to 1000 nM | 1000 to 10000 nM | 1000 to 10000 nM | 100 to 1000 nM | C[C@@H]1[C@H](NC(=O)N(C)C)CCCN1c1cnc(C(N)=O)c(Nc2ccc(C(=O)N3CCN(C)CC3)cc2)n1 [Example D-110, 5-[(2R,3R)-3-[(dimethylcarbamoyl)amino]-2-methylpiperidin-1-yl]-3-{[4-(4-methylpiperazine-1-carbonyl)phenyl]amino}pyrazine-2-carboxamide]
≤ 10 nM | 100 to 1000 nM | 100 to 1000 nM | 100 to 1000 nM | 10 to 100 nM | C[C@@H]1[C@H](NC(=O)N(C)C)CCCN1c1cnc(C(N)=O)c(Nc2ccc(N3CCN(C)CC3)cc2)n1 [Example D-111, 5-[(2R,3R)-3-[(dimethylcarbamoyl)amino]-2-methylpiperidin-1-yl]-3-{[4-(4-methylpiperazin-1-yl)phenyl]amino}pyrazine-2-carboxamide]
≤ 10 nM | 10 to 100 nM | 100 to 1000 nM | 100 to 1000 nM | 100 to 1000 nM | C[C@@H]1[C@H](NC(=O)c2ccc(C3CC3)cc2F)CCCN1c1cnc(C(N)=O)c(Nc2ccc(CN3CCN(C)CC3)cc2)n1 [Example D-113, 5-[(2R,3R)-3-(4-cyclopropyl-2-fluorobenzamido)-2-methylpiperidin-1-yl]-3-({4-[(4-methylpiperazin-1-yl)methyl]phenyl}amino)pyrazine-2-carboxamide]
10 to 100 nM | 10 to 100 nM | > 10000 nM | > 10000 nM | 100 to 1000 nM | C[C@@H]1[C@H](NC(=O)c2ccc(C3CC3)cc2F)CCCN1c1cnc(C(N)=O)c(Nc2ccc3ncccc3c2)n1 [Example D-114, 5-[(2R,3R)-3-(4-cyclopropyl-2-fluorobenzamido)-2-methylpiperidin-1-yl]-3-[(quinolin-6-yl)amino]pyrazine-2-carboxamide]
≤ 10 nM | 100 to 1000 nM | 1000 to 10000 nM | 1000 to 10000 nM | 100 to 1000 nM | Cc1cc(Nc2cc(N3CCC[C@@H](NC(=O)c4ccc(C5CC5)cc4F)[C@H]3C)cnc2C(N)=O)sn1 [Example D-116, 5-[(2R,3R)-3-(4-cyclopropyl-2-fluorobenzamido)-2-methylpiperidin-1-yl]-3-[(3-methyl-1,2-thiazol-5-yl)amino]pyridine-2-carboxamide]
10 to 100 nM | 100 to 1000 nM | 1000 to 10000 nM | 1000 to 10000 nM | 100 to 1000 nM | C[C@@H]1[C@H](NC(=O)c2ccc(C3CC3)cc2F)CCCN1c1cnc(C(N)=O)c(Nc2cnn(C)c2)c1 [Example D-117, 5-[(2R,3R)-3-(4-cyclopropyl-2-fluorobenzamido)-2-methylpiperidin-1-yl]-3-[(1-methyl-1H-pyrazol-4-yl)amino]pyridine-2-carboxamide]
≤ 10 nM | 100 to 1000 nM | 100 to 1000 nM | 1000 to 10000 nM | 100 to 1000 nM | C[C@@H]1[C@H](NC(=O)N(C)C)CCCN1c1cnc(C(N)=O)c(Nc2cc(CN3CCOCC3)ns2)n1 [Example D-118, 5-[(2R,3R)-3-[(dimethylcarbamoyl)amino]-2-methylpiperidin-1-yl]-3-{[3-(morpholin-4-ylmethyl)-1,2-thiazol-5-yl]amino}pyrazine-2-carboxamide]
100 to 1000 nM | > 10000 nM | > 10000 nM | 100 to 1000 nM | 1000 to 10000 nM | Cc1nsc(Nc2nc(N3CCC[C@@H](NC(=O)N(C)C)[C@H]3C)cnc2C(N)=O)c1C [Example D-119, 3-[(dimethyl-1,2-thiazol-5-yl)amino]-5-[(2R,3R)-3-[(dimethylcarbamoyl)amino]-2-methylpiperidin-1-yl]pyrazine-2-carboxamide]

SMILES | IC50 (BTK-WT) | IC50 (TEC) | IC50 (ITK) | IC50 (EGFR) | IC50 (SRC)
C[C@@H]1[C@H](NC(=O)c2ccc(C3CC3)cc2)CCCN1c1cnc(C(N)=O)c(Nc2ccc(OC3C[C@H]4CC[C@@H](C3)N4C)cc2)n1 (stereo partly drawn) [Example D-104, 5-[(2R,3R)-3-(4-cyclopropylbenzamido)-2-methylpiperidin-1-yl]-3-[(4-{[(1R,5S)-8-methyl-8-azabicyclo[3.2.1]octan-3-yl]oxy}phenyl)amino]pyrazine-2-carboxamide] | ≤ 10 nM | ≤ 10 nM | 10 to 100 nM | 100 to 1000 nM | 10 to 100 nM
C[C@@H]1[C@H](NC(=O)c2ccc(C3CC3)cc2)CCCN1c1cnc(C(N)=O)c(Nc2ccc(OC3C[C@H]4CC[C@@H](C3)N4C)cc2)n1 (stereo partly drawn) [Example D-106, 5-[(2R,3R)-3-(4-cyclopropylbenzamido)-2-methylpiperidin-1-yl]-3-[(4-{[(1R,5S)-8-methyl-8-azabicyclo[3.2.1]octan-3-yl]oxy}phenyl)amino]pyrazine-2-carboxamide] | ≤ 10 nM | ≤ 10 nM | 10 to 100 nM | 100 to 1000 nM | 10 to 100 nM
C[C@@H]1[C@H](NC(=O)c2ccc(C3CC3)cc2)CCCN1c1cnc(C(N)=O)c(Nc2ccc(C3(C)CCN(C4CCCC4)CC3)cc2)n1 [Example D-112, 3-{[4-(1-cyclopentyl-4-methylpiperidin-4-yl)phenyl]amino}-5-[(2R,3R)-3-(4-cyclopropylbenzamido)-2-methylpiperidin-1-yl]pyrazine-2-carboxamide] | ≤ 10 nM | ≤ 10 nM | 10 to 100 nM | 100 to 1000 nM | ≤ 10 nM
